Columns and labels:
[1] = system: moderate to severe post-operative pain; details: cited from earlier work
[2] = in vivo; cited from earlier work
rabbit skin = details: in vivo
[3] = human subjects, cited from earlier work
[4] = animal models; cited from earlier work

## O=C(c1ccccc1)c1ccc2n1CCC2C(=O)O (racemic) [Toradol®, Ketorolac tromethamine]
[1]; administered orally for extended periods of time
  adverse effects: gastric irritation and ulcers have been observed
[1]; single-dose, moderate to severe post-operative pain
  efficacy compared with morphine, meperidine, or pentazocine: more efficacious

## O=C(c1ccccc1)c1ccc2n1CCC2C(=O)O (racemic) [racemic ketorolac, ketorolac]
[2]
  biological half-life: 4-6 hours

## O=C(c1ccccc1)c1ccc2n1CC[C@@H]2C(=O)O [(s)-ketorolac]
Rabbit skin
  skin irritation (erythema and edema), in words: non-irritant
[3]; after oral administration of racemic ketorolac, all sample times
  plasma concentrations compared with (r)-ketorolac: lower
[3]; single oral solution dose
  clearance compared with (r)-ketorolac: greater
  plasma half-life compared with (r)-ketorolac: shorter
[4]
  potency compared with the (r)-enantiomer: approximately twice as potent

## CCCCCCCCCCCCOS(=O)(=O)[O-].[Na+] [SDS, 5%, sodium dodecyl sulfate]
Rabbit skin; New Zealand
  Overall Edema Score: 2.0
  Overall Erythema Score: 1.0
